Measurements published in PubChem BioAssay (NCI).
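Grown in 96-well plates, cells were treated for 48 hours with each compound at five concentrations. Insufficient inhibition: endpoint recorded as highest concentration tested. TGI denotes the concentration required for complete inhibition of growth.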

Assays:
Assay in all cases: NCI-60 cell line screen, 48 h
[1] = system: SW-620 colon
[2] = system: MDA-N
[3] = system: NCI/ADR-RES ovarian
[4] = system: HOP-92 NSCLC
[5] = system: MCF7 breast
[6] = system: U251 CNS
[7] = system: RXF 393 renal
[8] = system: UACC-257 melanoma
[9] = system: RPMI-8226 leukemia
[10] = system: M19-MEL melanoma
[11] = system: KM12 colon
[12] = system: MALME-3M melanoma
[13] = system: K-562 leukemia
[14] = system: LXFL 529 NSCLC
[15] = system: OVCAR-4 ovarian
[16] = system: SNB-75 CNS
[17] = system: SNB-78 CNS
[18] = system: SF-295 CNS
[19] = system: OVCAR-8 ovarian
[20] = system: 786-0 renal
[21] = system: LOX IMVI melanoma
[22] = system: NCI-H226 lung
[23] = system: SK-MEL-28 melanoma
[24] = system: EKVX NSCLC
[25] = system: A498 renal
[26] = system: SF-539 CNS
[27] = system: TK-10 renal
[28] = system: T-47D breast
[29] = system: HS 578T breast
[30] = system: COLO 205 colon
[31] = system: HOP-62 NSCLC
[32] = system: CCRF-CEM leukemia
[33] = system: DLD-1 colon
[34] = system: SR leukemia
[35] = system: HOP-18 NSCLC
[36] = system: DMS 273 small cell lung
[37] = system: SK-OV-3 ovarian
[38] = system: UO-31 renal
[39] = system: PC-3 prostate
[40] = system: HT29 colon
[41] = system: DU-145 prostate
[42] = system: SF-268 CNS
[43] = system: DMS 114 small cell lung
[44] = system: M14 melanoma
[45] = system: NCI-H522 lung
[46] = system: SNB-19 CNS
[47] = system: SK-MEL-2 melanoma
[48] = system: UACC-62 melanoma
[49] = system: HCT-15 colon
[50] = system: HCT-116 colon
[51] = system: HL-60(TB) leukemia
[52] = system: NCI-H23 lung
[53] = system: SN12C renal
[54] = system: ACHN renal
[55] = system: MDA-MB-435
[56] = system: CAKI-1 renal
[57] = system: NCI-H460 lung
[58] = system: IGROV1 ovarian
[59] = system: SK-MEL-5 melanoma
[60] = system: OVCAR-3 ovarian
[61] = system: MOLT-4 leukemia
[62] = system: HCC-2998 colon
[63] = system: BT-549 breast
[64] = system: OVCAR-5 ovarian
[65] = system: A549 NSCLC
[66] = system: KM20L2 colon

N#C/C(=C\c1ccc2[nH]ccc2c1)C(=O)c1ccc(O)c(O)c1
TGI [1]: > 100 µM
TGI [2]: > 100 µM
TGI [3]: > 100 µM
TGI [4]: > 100 µM
TGI [5]: > 100 µM
TGI [6]: > 100 µM
TGI [7]: > 100 µM
TGI [8]: > 100 µM
TGI [9]: > 100 µM
TGI [10]: > 100 µM
TGI [11]: > 100 µM
TGI [12]: > 100 µM
TGI [13]: > 100 µM
TGI [14]: > 100 µM
TGI [15]: > 100 µM
TGI [16]: > 100 µM
TGI [17]: > 100 µM
TGI [18]: > 100 µM
TGI [19]: > 100 µM
TGI [20]: > 100 µM
TGI [21]: > 100 µM
TGI [22]: > 100 µM
TGI [23]: > 100 µM
TGI [24]: > 100 µM
TGI [25]: > 100 µM
TGI [26]: > 100 µM
TGI [27]: > 100 µM
TGI [28]: > 100 µM
TGI [29]: > 100 µM
TGI [30]: > 100 µM
TGI [31]: > 100 µM
TGI [32]: > 85 µM
TGI [33]: > 100 µM
TGI [34]: > 100 µM
TGI [35]: > 100 µM
TGI [36]: > 100 µM
TGI [37]: > 100 µM
TGI [38]: > 100 µM
TGI [39]: > 100 µM
TGI [40]: > 100 µM
TGI [41]: > 100 µM
TGI [42]: > 100 µM
TGI [43]: > 100 µM
TGI [44]: > 100 µM
TGI [45]: > 100 µM
TGI [46]: > 100 µM
TGI [47]: > 100 µM
TGI [48]: > 100 µM
TGI [49]: > 100 µM
TGI [50]: > 100 µM
TGI [51]: > 95.1 µM
TGI [52]: > 100 µM
TGI [53]: > 100 µM
TGI [54]: > 100 µM
TGI [55]: > 100 µM
TGI [56]: > 100 µM
TGI [57]: > 100 µM
TGI [58]: > 100 µM
TGI [59]: > 100 µM
TGI [60]: 79.3 µM
TGI [61]: > 100 µM
TGI [62]: > 100 µM
TGI [63]: > 100 µM
TGI [64]: > 100 µM
TGI [65]: > 100 µM
TGI [66]: > 100 µM

C/C(=N\NC(N)=S)c1ccc(C2CCCCC2)cc1
TGI [6]: 39.9 µM
TGI [7]: 27.6 µM
TGI [9]: > 100 µM
TGI [10]: > 100 µM
TGI [11]: > 100 µM
TGI [12]: 37.6 µM
TGI [13]: 39.2 µM
TGI [15]: 38.4 µM
TGI [17]: 91.1 µM
TGI [18]: 21 µM
TGI [19]: 36.8 µM
TGI [20]: 31.7 µM
TGI [23]: 33.7 µM
TGI [24]: > 100 µM
TGI [26]: 38 µM
TGI [27]: 80.3 µM
TGI [30]: 26.1 µM
TGI [31]: 73.6 µM
TGI [34]: > 100 µM
TGI [35]: > 100 µM
TGI [37]: 75.9 µM
TGI [38]: 41.8 µM
TGI [40]: 34.5 µM
TGI [42]: > 100 µM
TGI [43]: 29.9 µM
TGI [44]: 22.7 µM
TGI [46]: > 100 µM
TGI [47]: 32.8 µM
TGI [48]: 32.2 µM
TGI [50]: 44.6 µM
TGI [52]: 56.3 µM
TGI [56]: 64.6 µM
TGI [58]: 62.1 µM
TGI [60]: 30.5 µM
TGI [61]: 35.7 µM
TGI [62]: 42 µM
TGI [64]: 35.1 µM
TGI [65]: > 100 µM
TGI [66]: 30.1 µM
